# Laboratory results from patent US10538535B2, “Antitumoral compounds” (priority 2017, dated 2020).
# Like-named read-outs stand apart in the source and are kept apart here.
# Assays:
# A2780 tumors = settings: A2780 xenograft
# Method: (§2) Female athymic nu/nu mice (Harlan Laboratories Models, S. L. Barcelona, Spain or Envigo, Spain) were utilized for all experiments. Animal were housed in individually ventilated cages Sealsafe® Plus, Techniplast S.P.A.), up to ten per cage on a 12-hour light-dark cycle at 21-23° C. and 40-60% humidity. […] Animals were acclimated for at least 5 days prior to tumor implantation with a tumor cell suspension.
# Culture cells were passaged every 3 to 5 days upon reaching confluence. Each animal was subcutaneously implanted (on the right flank using 26 G needle and a 1 cc syringe) at 4-6 weeks of age with 10×10^6 A2780 cells suspended in 0.05 mL of a solution consisting of 50% Matrigel® (Corning Incorporated Life Sciences) and 50% medium without serum or antibiotics.
# (§3) Treatment tolerability was assessed by monitoring body weight evolution, clinical signs of systemic toxicity, as well as evidences of local damage in the injection site.
# In xenograft studies with other cell lines: • Tumor volume was calculated using the equation (a·b^2)/2, where a: length (longest diameter) and b: width (shortest diameter) were measured in mm by using digital caliper (Fowler Sylvac, S235PAT).
# (§4) Treatments producing >20% lethality and/or 20% net body weight loss were considered toxic.
# H526 tumors = assay: In vivo xenograft, human lung (SCLC) H526; settings: iv weekly, 32 and ET-736 0.5 mg/Kg
# [1] = MTMD (Maximum Tolerated Multiple Dose) determination, iv weekly x3; type: in vivo; settings: mice; iv/Q7dx3
# Procedure, shortened: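 Female CD-1 or athymic nude (nu/nu) mice received compound in experimental formulation at various concentrations, or blank formulation, i.v. at 10 mL/kg, once (MTD) or weekly for three weeks (MTMD). Clinical signs of systemic toxicity, body weight and mortality were followed up to 14 days post-dose.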
# HT29 cells = assay: cells; settings: Homo sapiens, HT-29, 72 h; for CC50: read-out: LC50; for IC (TGI): read-out: TGI
# Procedure, shortened: (§1)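 Cells were seeded at 5000 per well, attached overnight in drug-free medium, then exposed for 72 hours to ten 2/5 serial dilutions (10 to 0.003 μg/mL, 1% final DMSO) in triplicate. Growth was measured by SRB staining against a time-zero plate, with NCI-algorithm four-parameter logistic fits.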
# PSN1 cells = assay: cells; settings: Homo sapiens, PSN1, 72 h; for CC50: read-out: LC50; for IC (TGI): read-out: TGI
# Procedure, shortened: as §1
# MDA-MB-231 cells = assay: cells; settings: Homo sapiens, MDA-MB-231, 72 h; for CC50: read-out: LC50; for IC (TGI): read-out: TGI
# Procedure, shortened: as §1
# A549 cells = assay: cells; settings: Homo sapiens, A549, 72 h; for CC50: read-out: LC50; for IC (TGI): read-out: TGI
# Procedure, shortened: as §1
# H460 tumors = settings: iv, 0.5 mg/kg
# Method: as §2
# H460 cells were maintained in vitro at 37° C. with 5% CO2 in Dulbecco's Modified Eagle's Medium (Sigma-Aldrich, Co). Culture cells were passaged every 3 to 5 days upon reaching confluence. Each animal was subcutaneously implanted (on the right flank using 26 G needle and a 1 cc syringe) at 4-6 weeks of age with 5×10^6 H460 cells suspended in 0.05 mL of a solution consisting of 50% Matrigel® (Corning Incorporated Life Sciences) and 50% medium without serum or antibiotics.
# as §3, §4
# HGC27 tumors = settings: HGC27 xenograft
# Method: as §2
# HGC27 cells were maintained in vitro at 37° C. with 5% CO2 in Iscove's Modified Dulbecco's Medium (Sigma Aldrich, Co). Culture cells were passage every 3 to 5 days on reaching confluence. Each animal was subcutaneously implanted (on the right flank using 26 G needle and a 1 cc syringe) at 4-6 weeks of age with 5×10^6 HGC-27 cells suspended in 0.05 mL of a solution consisting of 50% Matrigel® (Corning Incorporated Life Sciences), 50% medium without serum or antibiotics.
# as §3, §4
compound,measurement,setting,value
"COc1c(C)cc2c(c1O)[C@@H]1[C@@H]3[C@@H]4SC[C@]5(NCCc6c5[nH]c5ccccc65)C(=O)OC[C@@H](c5c6c(c(C)c(OC(C)=O)c54)OCO6)N3[C@@H](O)[C@H](C2)N1C [ET-736, Ecteinascidin 736]",Median Tumor Volume,A2780 tumors; Day 0,168.8 mm^3
same,Median Tumor Volume,A2780 tumors; Day 2,251.2 mm^3
same,Median Tumor Volume,A2780 tumors; Day 5,382.6 mm^3
same,Median Tumor Volume,A2780 tumors; Day 7,676.1 mm^3
same,Median Tumor Volume,A2780 tumors; Day 9,959.4 mm^3
same,Median Tumor Volume,A2780 tumors; Day 12,1241.5 mm^3
same,Median Tumor Volume,A2780 tumors; Day 14,1582.7 mm^3
same,Median Tumor Volume,A2780 tumors; Day 16,1646.4 mm^3
same,Median Tumor Volume,A2780 tumors; Day 19,1845.5 mm^3
same,Median Tumor Volume,A2780 tumors; Day 21,2025.0 mm^3
same,Median Tumor Volume,"H526 tumors; Table 63, Day 0",213.5 mm^3
same,Median Tumor Volume,"H526 tumors; Table 63, Day 2",240.5 mm^3
same,Median Tumor Volume,"H526 tumors; Table 63, Day 4",97.2 mm^3
same,Median Tumor Volume,"H526 tumors; Table 63, Day 7",48.8 mm^3
same,Median Tumor Volume,"H526 tumors; Table 63, Day 9",62.5 mm^3
same,Median Tumor Volume,"H526 tumors; Table 63, Day 11",62.5 mm^3
same,Median Tumor Volume,"H526 tumors; Table 63, Day 14",47.3 mm^3
same,Median Tumor Volume,"H526 tumors; Table 63, Day 16",32.0 mm^3
same,Median Tumor Volume,"H526 tumors; Table 63, Day 21",4.0 mm^3
same,Median Tumor Volume,"H526 tumors; Table 63, Day 28",4.0 mm^3
same,Median Tumor Volume,"H526 tumors; Table 63, Day 35",4.0 mm^3
same,Median Tumor Volume,"H526 tumors; Table 63, Day 42",4.0 mm^3
same,Median Tumor Volume,"H526 tumors; Table 63, Day 49",4.0 mm^3
same,Median Tumor Volume,"H526 tumors; Table 63, Day 56",4.0 mm^3
same,Median Tumor Volume,"H526 tumors; Table 63, Day 63",4.0 mm^3
same,Median Tumor Volume,"H526 tumors; Table 63, Day 70",4.0 mm^3
same,Median Tumor Volume,"H526 tumors; Table 63, Day 77",4.0 mm^3
same,Median Tumor Volume,"H526 tumors; Table 63, Day 84",199.8 mm^3
same,Median Tumor Volume,"H526 tumors; Table 63, Day 91",786.5 mm^3
same,MTMD,[1],0.5 mg/kg
same,GI50,HT29 cells,21.2 nM
same,CC50,HT29 cells,> 132 nM
same,IC (TGI),HT29 cells,22.5 nM
same,GI50,PSN1 cells,39.7 nM
same,CC50,PSN1 cells,102 nM
same,IC (TGI),PSN1 cells,59.6 nM
same,GI50,MDA-MB-231 cells,21.2 nM
same,CC50,MDA-MB-231 cells,47.7 nM
same,IC (TGI),MDA-MB-231 cells,25.2 nM
same,GI50,A549 cells,22.5 nM
same,CC50,A549 cells,> 132 nM
same,IC (TGI),A549 cells,47.7 nM
same,Median Tumor Volume,H460 tumors; 0 h,185.8 mm^3
same,Median Tumor Volume,H460 tumors; 48 h,457.8 mm^3
same,Median Tumor Volume,H460 tumors; 120 h,732.8 mm^3
same,Median Tumor Volume,H460 tumors; 168 h,930.1 mm^3
same,Median Tumor Volume,H460 tumors; 336 h,1845.5 mm^3
same,Median Tumor Volume,H460 tumors; 384 h,2025.0 mm^3
same,Median Tumor Volume,HGC27 tumors; Day 0,195.9 mm^3
same,Median Tumor Volume,HGC27 tumors; Day 2,359.2 mm^3
same,Median Tumor Volume,HGC27 tumors; Day 5,537.6 mm^3
same,Median Tumor Volume,HGC27 tumors; Day 7,553.5 mm^3
same,Median Tumor Volume,HGC27 tumors; Day 9,604.7 mm^3
same,Median Tumor Volume,HGC27 tumors; Day 12,627.4 mm^3
same,Median Tumor Volume,HGC27 tumors; Day 14,648.0 mm^3
same,Median Tumor Volume,HGC27 tumors; Day 16,687.6 mm^3
same,Median Tumor Volume,HGC27 tumors; Day 19,760.0 mm^3
same,Median Tumor Volume,HGC27 tumors; Day 21,792.4 mm^3
same,Median Tumor Volume,HGC27 tumors; Day 23,818.9 mm^3
same,Median Tumor Volume,HGC27 tumors; Day 26,1026.1 mm^3
same,Median Tumor Volume,HGC27 tumors; Day 28,1354.9 mm^3
COc1c(C)cc2c(c1O)[C@@H]1[C@@H]3[C@@H]4SC[C@]5(NCCc6c5oc5ccccc65)C(=O)OC[C@@H](c5c6c(c(C)c(OC(C)=O)c54)OCO6)N3[C@@H](O)[C@H](C2)N1C [Compound 32],Median Tumor Volume,A2780 tumors; Day 0,168.6 mm^3
same,Median Tumor Volume,A2780 tumors; Day 2,262.9 mm^3
same,Median Tumor Volume,A2780 tumors; Day 5,572.7 mm^3
same,Median Tumor Volume,A2780 tumors; Day 7,997.5 mm^3
same,Median Tumor Volume,A2780 tumors; Day 9,1359.9 mm^3
same,Median Tumor Volume,A2780 tumors; Day 12,1715.0 mm^3
same,Median Tumor Volume,A2780 tumors; Day 14,2025.0 mm^3
same,Median Tumor Volume,A2780 tumors; Day 16,2025.0 mm^3
same,Median Tumor Volume,"H526 tumors; Table 63, Day 0",212.1 mm^3
same,Median Tumor Volume,"H526 tumors; Table 63, Day 2",277.3 mm^3
same,Median Tumor Volume,"H526 tumors; Table 63, Day 4",127.0 mm^3
same,Median Tumor Volume,"H526 tumors; Table 63, Day 7",95.0 mm^3
same,Median Tumor Volume,"H526 tumors; Table 63, Day 9",63.1 mm^3
same,Median Tumor Volume,"H526 tumors; Table 63, Day 11",62.5 mm^3
same,Median Tumor Volume,"H526 tumors; Table 63, Day 14",62.5 mm^3
same,Median Tumor Volume,"H526 tumors; Table 63, Day 16",62.5 mm^3
same,Median Tumor Volume,"H526 tumors; Table 63, Day 21",4.0 mm^3
same,Median Tumor Volume,"H526 tumors; Table 63, Day 28",4.0 mm^3
same,Median Tumor Volume,"H526 tumors; Table 63, Day 35",55.3 mm^3
same,Median Tumor Volume,"H526 tumors; Table 63, Day 42",85.3 mm^3
same,Median Tumor Volume,"H526 tumors; Table 63, Day 49",185.6 mm^3
same,Median Tumor Volume,"H526 tumors; Table 63, Day 56",169.1 mm^3
same,Median Tumor Volume,"H526 tumors; Table 63, Day 63",62.5 mm^3
same,Median Tumor Volume,"H526 tumors; Table 63, Day 70",88.9 mm^3
same,Median Tumor Volume,"H526 tumors; Table 63, Day 77",280.6 mm^3
same,Median Tumor Volume,"H526 tumors; Table 63, Day 84",694.2 mm^3
same,Median Tumor Volume,"H526 tumors; Table 63, Day 91",1150.9 mm^3
same,MTMD,[1],0.5 mg/kg
same,GI50,HT29 cells,6.88 nM
same,CC50,HT29 cells,> 13.2 nM
same,IC (TGI),HT29 cells,> 13.2 nM
same,GI50,PSN1 cells,6.09 nM
same,CC50,PSN1 cells,12 nM
same,IC (TGI),PSN1 cells,8.34 nM
same,GI50,MDA-MB-231 cells,4.76 nM
same,CC50,MDA-MB-231 cells,> 13.2 nM
same,IC (TGI),MDA-MB-231 cells,10.5 nM
same,GI50,A549 cells,6.88 nM
same,CC50,A549 cells,> 13.2 nM
same,IC (TGI),A549 cells,> 13.2 nM
same,Median Tumor Volume,H460 tumors; 0 h,183.9 mm^3
same,Median Tumor Volume,H460 tumors; 48 h,455.2 mm^3
same,Median Tumor Volume,H460 tumors; 120 h,784.8 mm^3
same,Median Tumor Volume,H460 tumors; 168 h,837.4 mm^3
same,Median Tumor Volume,H460 tumors; 336 h,1845.5 mm^3
same,Median Tumor Volume,H460 tumors; 384 h,2025.0 mm^3
same,Median Tumor Volume,HGC27 tumors; Day 0,194.8 mm^3
same,Median Tumor Volume,HGC27 tumors; Day 2,386.3 mm^3
same,Median Tumor Volume,HGC27 tumors; Day 5,551.3 mm^3
same,Median Tumor Volume,HGC27 tumors; Day 7,579.2 mm^3
same,Median Tumor Volume,HGC27 tumors; Day 9,665.8 mm^3
same,Median Tumor Volume,HGC27 tumors; Day 12,701.1 mm^3
same,Median Tumor Volume,HGC27 tumors; Day 14,814.5 mm^3
same,Median Tumor Volume,HGC27 tumors; Day 16,959.9 mm^3
same,Median Tumor Volume,HGC27 tumors; Day 19,1312.4 mm^3
same,Median Tumor Volume,HGC27 tumors; Day 21,1626.8 mm^3
same,Median Tumor Volume,HGC27 tumors; Day 23,1737.3 mm^3
